Reference: patent publication US8618099B2, “Pyrazolyl-pyrimidine derivatives and their use as potassium channel modulators” (Ataxion, Inc., priority 2008, dated 2013)

How the values were obtained:
[1] = target: T1, small-conductance Ca2+-activated K+ channels (SK channels, subtype 3), hSK3 (Homo sapiens, UniProt Q9UGI6); assay: Whole-cell patch-clamp recording of ionic current through hSK3 channels expressed in HEK293 cells; format: cell-based; conditions: HEK293 cells expressing hSK3 channels
T1 construct: expressed in transfected cells; host or cells: HEK293
Procedure: The compounds of the invention may be tested for their usefulness as potassium channel modulating agents e.g. such as described in WO 2006/100212.
The ionic current through small-conductance Ca^2+-activated K^+ channels (SK channels, subtype 3) is recorded using the whole-cell configuration of the patch-clamp technique in a classic patch-clamp set-up using HEK293 tissue culture cells expressing hSK3 channels as described in e.g. WO 2006/100212
The SC100 value determined is defined as the Stimulating Concentration required for increasing the baseline current by 100%. The SC100 value determined for Compound 4.1 of the invention was 0.022±0.013 μM, which is an indication of its SK3 activating properties.

What does the source list for `Cc1cc(C)n(-c2nc(Nc3ccc(Cl)cc3)cc(N3CCOCC3)n2)n1` [Compound 4.1, (4-Chloro-phenyl)-[2-(3,5-dimethyl-pyrazol-1-yl)-6-morpholin-4-yl-pyrimidin-4-yl]-amine]?
SC100 (Stimulating Concentration required for increasing the baseline current by 100%) [1]: 0.022 ± 0.013 µM; melting point: 186 to 187 °C
